Measured values: patent US5571793A, “Endoparasiticidal compositions based on open-chain tetradepsipeptides” (Bayer Aktiengesellschaft, priority 1993, dated 1996)

System: Haemonchus contortus
Assay: In vivo nematode test Haemonchus contortus/sheep
Conditions: sheep infected experimentally with Haemonchus contortus; pure active compound orally and/or intravenously; dose at which nematode egg excretion with the faeces stops completely
Method: Sheep which had been infected experimentally with Haemonchus contortus were treated after the prepatency period of the parasites had elapsed. The active compounds were administered orally and/or intravenously in the form of the pure active compound.
The degree of effectiveness is determined by quantitatively determining the nematode eggs excreted with the faeces before and after the treatment.
If egg excretion stops completely after the treatment, this means that the nematodes have been aborted or damaged in such a manner that they no longer produce eggs (dosis effectiva).
Active compounds which have been tested and effective dosage rates (dosis effectiva) can be seen from the Table which follows: […]

Compound	Dosis effectiva
CCCN(Cc1ccccc1)[C@@H](CC(C)C)C(=O)O[C@H](C)C(=O)N(CCC)[C@@H](CC(C)C)C(=O)O[C@H](Cc1ccccc1)C(=O)O [Example 2, N-Benzyl-N-propyl-L-leucyl-D-lactyl-N-propyl-L-leucyl-D-phenyllactic acid]	10 mg/kg
CCN[C@@H](CC(C)C)C(=O)O[C@H](C)C(=O)N(CC)[C@@H](CC(C)C)C(=O)O[C@H](Cc1ccccc1)C(=O)OC(C)(C)C [Example 1, tert.-Butyl-N-ethyl-L-leucyl-D-lactyl-N-ethyl-L-leucyl-D-3-phenyllactate]	10 mg/kg
CN[C@@H](Cc1ccccc1)C(=O)O[C@H](C)C(=O)N(C)[C@H](Cc1ccccc1)C(=O)O[C@H](C)C(=O)OC(C)(C)C [Example 3, tert.-Butyl-N-methyl-L-phenylalanyl-D-lactyl-N-methyl-D-phenylalanyl-D-lactate]	10 mg/kg
